Data taken from patent US20050282755A1, “Compositions having antimicrobial activity and uses thereof” (priority 2004, published 2005).
Values after ≈ are worked out from the molar mass of the structure shown. Starred links: 1 amine or outer side, 2 acyl side, 3 side chain; linkers in the order of their positions; H or OH if unused. Non-standard residues stand in square brackets, D forms with d. Residues, ends and D or L forms follow the SMILES beside them. *: point of attachment. Ethylenediamine = C(CN[*:2])N[*:1]; Lauroyl = CCCCCCCCCCCC(=O)*; Decanoyl = CCCCCCCCCC(=O)*; Octanoyl = CCCCCCCC(=O)*; Hexanoyl = CCCCCC(=O)*

Assays:
Assay type in all cases: cell-based
[1] = system: Candida albicans ATCC 18804; experiment: MIC in yeasts, NCCLS M27-A2 broth microdilution, RPMI 1640 (Table 9, letter e); conditions: ATCC 18804
Outline: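 Plates incubated 24 to 48 hours at 37° C, with yeast seeded at 0.5×10^3–2.5×10^3 CFU/milliliter final in RPMI 1640 (glutamine, phenol red indicator). MIC was read as the lowest peptide concentration showing no visible growth.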

[2] = system: Staphylococcus epidermidis ATCC 12228; experiment: MIC, NCCLS M7-A6 broth microdilution (Table 9, no superscript); conditions: ATCC 12228
Outline: (§1)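 MIC, read as the lowest peptide concentration without visible growth compared with peptide-free wells, after overnight incubation at 37° C. Wells held cation-adjusted Mueller Hinton broth and a final inoculum of 5×10^5 to 1×10^6 CFU/mL from log-phase culture.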

[3] = system: Escherichia coli ATCC 25922; experiment: as above; conditions: ATCC 25922
Outline: as §1

[4] = system: Pseudomonas aeruginosa ATCC 27853; experiment: as above; conditions: ATCC 27853
Outline: as §1

Salmonella dublin (Lane) = experiment: as above
Outline: as §1

[5] = system: Staphylococcus aureus ATCC 29213; experiment: MIC, NCCLS M7-A6 broth microdilution, cation-adjusted Mueller Hinton broth (Table 9, no superscript); conditions: ATCC 29213
Outline: as §1

[6] = system: Propionibacterium acnes ATCC 6919; experiment: MIC, agar dilution method NCCLS M11-A6, Brucella agar, anaerobic (Table 9, superscript c); conditions: ATCC 6919
Outline: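 MIC taken as the lowest peptide level giving no colonies on the plate. Plates were inoculated to 1.5×10^8 CFU/milliliter, then kept anaerobically at 37° C. for 48-96 hours; method follows NCCLS M11-A6.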

SMILES	MIC C. albicans [1] [e ug/mL]	MIC S. epidermidis [2] [µg/mL]	MIC E. coli [3] [µg/mL]	MIC P. aeruginosa [4] [µg/mL]	MIC S. dublin (Salmonella dublin (Lane)) [µg/mL]	MIC S. aureus [5] [µg/mL]	MIC P. acnes [6] [c ug/mL]
CCCCCC(=O)NCCNC(=O)[C@H](CCCNC(=N)N)NC(=O)[C@H](CCSC)NC(=O)[C@H](Cc1ccccc1)NC(=O)[C@H](CC(N)=O)NC(=O)[C@H](CCCNC(=N)N)NC(=O)[C@H](C)NC(=O)[C@@H](NC(=O)[C@H](CC(=O)O)NC(=O)[C@H](CCCNC(=N)N)NC(=O)[C@H](Cc1c[nH]c2ccccc12)NC(=O)[C@H](CCCNC(=N)N)NC(=O)[C@H](CO)NC(=O)[C@@H](N)CCCNC(=N)N)C(C)C [Peptide 173, H2N-RSRWRDVARNFMR-Ethylamidohexanyl] (H-RSRWRDVARNFMR-{Ethylenediamine-Hexanoyl}; C-terminus assumed)	64	2 (≈ 1.06 µM)	8 (≈ 4.23 µM)	16 (≈ 8.46 µM)	32 (≈ 16.9 µM)	16 (≈ 8.46 µM)	>64
CCCCCCCC(=O)NCCNC(=O)[C@H](CCCNC(=N)N)NC(=O)[C@H](CCSC)NC(=O)[C@H](Cc1ccccc1)NC(=O)[C@H](CC(N)=O)NC(=O)[C@H](CCCNC(=N)N)NC(=O)[C@H](C)NC(=O)[C@@H](NC(=O)[C@H](CC(=O)O)NC(=O)[C@H](CCCNC(=N)N)NC(=O)[C@H](Cc1c[nH]c2ccccc12)NC(=O)[C@H](CCCNC(=N)N)NC(=O)[C@H](CO)NC(=O)[C@@H](N)CCCNC(=N)N)C(C)C [Peptide 174, H2N-RSRWRDVARNFMR-Ethylamidooctanyl] (H-RSRWRDVARNFMR-{Ethylenediamine-Octanoyl}; C-terminus assumed)	32	1 (≈ 0.521 µM)	2 (≈ 1.04 µM)	4 (≈ 2.09 µM)	16 (≈ 8.34 µM)	8 (≈ 4.17 µM)	64
CCCCCCCCCC(=O)NCCNC(=O)[C@H](CCCNC(=N)N)NC(=O)[C@H](CCSC)NC(=O)[C@H](Cc1ccccc1)NC(=O)[C@H](CC(N)=O)NC(=O)[C@H](CCCNC(=N)N)NC(=O)[C@H](C)NC(=O)[C@@H](NC(=O)[C@H](CC(=O)O)NC(=O)[C@H](CCCNC(=N)N)NC(=O)[C@H](Cc1c[nH]c2ccccc12)NC(=O)[C@H](CCCNC(=N)N)NC(=O)[C@H](CO)NC(=O)[C@@H](N)CCCNC(=N)N)C(C)C [Peptide 175, H2N-RSRWRDVARNFMR-Ethylamidodecanyl] (H-RSRWRDVARNFMR-{Ethylenediamine-Decanoyl}; C-terminus assumed)	8	1 (≈ 0.514 µM)	4 (≈ 2.06 µM)	2 (≈ 1.03 µM)	4 (≈ 2.06 µM)	4 (≈ 2.06 µM)	32
CCCCCCCCCCCC(=O)NCCNC(=O)[C@H](CCCNC(=N)N)NC(=O)[C@H](CCSC)NC(=O)[C@H](Cc1ccccc1)NC(=O)[C@H](CC(N)=O)NC(=O)[C@H](CCCNC(=N)N)NC(=O)[C@H](C)NC(=O)[C@@H](NC(=O)[C@H](CC(=O)O)NC(=O)[C@H](CCCNC(=N)N)NC(=O)[C@H](Cc1c[nH]c2ccccc12)NC(=O)[C@H](CCCNC(=N)N)NC(=O)[C@H](CO)NC(=O)[C@@H](N)CCCNC(=N)N)C(C)C [Peptide 176, H2N-RSRWRDVARNFMR-Ethylamidolauryl] (H-RSRWRDVARNFMR-{Ethylenediamine-Lauroyl}; C-terminus assumed)	4	1 (≈ 0.506 µM)	8 (≈ 4.05 µM)	32 (≈ 16.2 µM)	16 (≈ 8.1 µM)	8 (≈ 4.05 µM)	64
CCCCCCCCCC(=O)NCCCC[C@H](NC(=O)[C@H](CCCNC(=N)N)NC(=O)[C@H](CC(C)C)NC(=O)[C@H](Cc1ccccc1)NC(=O)[C@H](CC(N)=O)NC(=O)[C@H](CCCNC(=N)N)NC(=O)[C@H](C)NC(=O)[C@@H](NC(=O)[C@H](CC(=O)O)NC(=O)[C@H](CCCNC(=N)N)NC(=O)[C@H](Cc1c[nH]c2ccccc12)NC(=O)[C@H](CCCNC(=N)N)NC(=O)[C@H](CO)NC(=O)[C@@H](N)CCCNC(=N)N)C(C)C)C(N)=O [Peptide 180, H2N-RSRWRDVARNFLRK(Decanyl)-NH2] (H-RSRWRDVARNFLRK(Decanoyl)-NH2)	16	1 (≈ 0.497 µM)	4 (≈ 1.99 µM)	4 (≈ 1.99 µM)	16 (≈ 7.95 µM)	8 (≈ 3.97 µM)	64
CCCCCCCCCCCC(=O)NCCCC[C@H](NC(=O)[C@H](CCCNC(=N)N)NC(=O)[C@H](CC(C)C)NC(=O)[C@H](Cc1ccccc1)NC(=O)[C@H](CC(N)=O)NC(=O)[C@H](CCCNC(=N)N)NC(=O)[C@H](C)NC(=O)[C@@H](NC(=O)[C@H](CC(=O)O)NC(=O)[C@H](CCCNC(=N)N)NC(=O)[C@H](Cc1c[nH]c2ccccc12)NC(=O)[C@H](CCCNC(=N)N)NC(=O)[C@H](CO)NC(=O)[C@@H](N)CCCNC(=N)N)C(C)C)C(N)=O [Peptide 181, H2N-RSRWRDVARNFLRK(Lauryl)-NH2] (H-RSRWRDVARNFLRK(Lauroyl)-NH2)	8	1 (≈ 0.49 µM)	4 (≈ 1.96 µM)	4 (≈ 1.96 µM)	16 (≈ 7.84 µM)	4 (≈ 1.96 µM)	64
CCCCCCCCCC(=O)NCCCC[C@H](NC(=O)[C@H](CCCNC(=N)N)NC(=O)[C@H](CCSC)NC(=O)[C@H](Cc1ccccc1)NC(=O)[C@H](CC(N)=O)NC(=O)[C@H](CCCNC(=N)N)NC(=O)[C@H](C)NC(=O)[C@@H](NC(=O)[C@H](CC(=O)O)NC(=O)[C@H](CCCNC(=N)N)NC(=O)[C@H](Cc1c[nH]c2ccccc12)NC(=O)[C@H](CCCNC(=N)N)NC(=O)[C@H](CO)NC(=O)[C@@H](N)CCCNC(=N)N)C(C)C)C(N)=O [Peptide 185, H2N-RSRWRDVARNFMRK(Decanyl)-NH2] (H-RSRWRDVARNFMRK(Decanoyl)-NH2)	32	1 (≈ 0.492 µM)	8 (≈ 3.94 µM)	16 (≈ 7.88 µM)	16 (≈ 7.88 µM)	4 (≈ 1.97 µM)	32
CCCCCCCCCCCC(=O)NCCCC[C@H](NC(=O)[C@H](CCCNC(=N)N)NC(=O)[C@H](CCSC)NC(=O)[C@H](Cc1ccccc1)NC(=O)[C@H](CC(N)=O)NC(=O)[C@H](CCCNC(=N)N)NC(=O)[C@H](C)NC(=O)[C@@H](NC(=O)[C@H](CC(=O)O)NC(=O)[C@H](CCCNC(=N)N)NC(=O)[C@H](Cc1c[nH]c2ccccc12)NC(=O)[C@H](CCCNC(=N)N)NC(=O)[C@H](CO)NC(=O)[C@@H](N)CCCNC(=N)N)C(C)C)C(N)=O [Peptide 186, H2N-RSRWRDVARNFMRK(Lauryl)-NH2] (H-RSRWRDVARNFMRK(Lauroyl)-NH2)	16	1 (≈ 0.486 µM)	4 (≈ 1.94 µM)	4 (≈ 1.94 µM)	16 (≈ 7.77 µM)	4 (≈ 1.94 µM)	16
CCCCCCCC(=O)NCCCC[C@@H](NC(=O)[C@@H](CCCNC(=N)N)NC(=O)[C@@H](CC(C)C)NC(=O)[C@@H](Cc1ccccc1)NC(=O)[C@@H](CC(N)=O)NC(=O)[C@@H](CCCNC(=N)N)NC(=O)[C@@H](C)NC(=O)[C@H](NC(=O)[C@@H](CC(=O)O)NC(=O)[C@@H](CCCNC(=N)N)NC(=O)[C@@H](Cc1c[nH]c2ccccc12)NC(=O)[C@@H](CCCNC(=N)N)NC(=O)[C@@H](CO)NC(=O)[C@H](N)CCCNC(=N)N)C(C)C)C(N)=O [Peptide 193, H2N-rsrwrdvarnflrk(Octanyl)-NH2] (H-[dR][dS][dR][dW][dR][dD][dV][dA][dR][dN][dF][dL][dR][dK](Octanoyl)-NH2)	32	2 (≈ 1.01 µM)	8 (≈ 4.03 µM)	16 (≈ 8.06 µM)	16 (≈ 8.06 µM)	16 (≈ 8.06 µM)	8
CCCCCCCCCC(=O)NCCCC[C@@H](NC(=O)[C@@H](CCCNC(=N)N)NC(=O)[C@@H](CC(C)C)NC(=O)[C@@H](Cc1ccccc1)NC(=O)[C@@H](CC(N)=O)NC(=O)[C@@H](CCCNC(=N)N)NC(=O)[C@@H](C)NC(=O)[C@H](NC(=O)[C@@H](CC(=O)O)NC(=O)[C@@H](CCCNC(=N)N)NC(=O)[C@@H](Cc1c[nH]c2ccccc12)NC(=O)[C@@H](CCCNC(=N)N)NC(=O)[C@@H](CO)NC(=O)[C@H](N)CCCNC(=N)N)C(C)C)C(N)=O [Peptide 194, H2N-rsrwrdvarnflrk(Decanyl)-NH2] (H-[dR][dS][dR][dW][dR][dD][dV][dA][dR][dN][dF][dL][dR][dK](Decanoyl)-NH2)	16	1 (≈ 0.497 µM)	2 (≈ 0.993 µM)	2 (≈ 0.993 µM)	4 (≈ 1.99 µM)	2 (≈ 0.993 µM)	4
